According to ChEMBL document CHEMBL3352578 (J Med Chem, 2014):
The source made the active and inactive calls. The calls are words filed in the database; no cut-off is given here.

Columns and labels:
[1] = target: T1, Metabotropic glutamate receptor 2 (Homo sapiens, UniProt Q14416); experiment: Positive allosteric modulation of human mGlu2 receptor expressed in CHO cells assessed as potentiation of glutamate-induced effect incubated for 30 mins prior to [35S]GTPgamma addition measured after 30 mins; format: functional, cell-based
Target sequence in this assay (Q14416 whole entry): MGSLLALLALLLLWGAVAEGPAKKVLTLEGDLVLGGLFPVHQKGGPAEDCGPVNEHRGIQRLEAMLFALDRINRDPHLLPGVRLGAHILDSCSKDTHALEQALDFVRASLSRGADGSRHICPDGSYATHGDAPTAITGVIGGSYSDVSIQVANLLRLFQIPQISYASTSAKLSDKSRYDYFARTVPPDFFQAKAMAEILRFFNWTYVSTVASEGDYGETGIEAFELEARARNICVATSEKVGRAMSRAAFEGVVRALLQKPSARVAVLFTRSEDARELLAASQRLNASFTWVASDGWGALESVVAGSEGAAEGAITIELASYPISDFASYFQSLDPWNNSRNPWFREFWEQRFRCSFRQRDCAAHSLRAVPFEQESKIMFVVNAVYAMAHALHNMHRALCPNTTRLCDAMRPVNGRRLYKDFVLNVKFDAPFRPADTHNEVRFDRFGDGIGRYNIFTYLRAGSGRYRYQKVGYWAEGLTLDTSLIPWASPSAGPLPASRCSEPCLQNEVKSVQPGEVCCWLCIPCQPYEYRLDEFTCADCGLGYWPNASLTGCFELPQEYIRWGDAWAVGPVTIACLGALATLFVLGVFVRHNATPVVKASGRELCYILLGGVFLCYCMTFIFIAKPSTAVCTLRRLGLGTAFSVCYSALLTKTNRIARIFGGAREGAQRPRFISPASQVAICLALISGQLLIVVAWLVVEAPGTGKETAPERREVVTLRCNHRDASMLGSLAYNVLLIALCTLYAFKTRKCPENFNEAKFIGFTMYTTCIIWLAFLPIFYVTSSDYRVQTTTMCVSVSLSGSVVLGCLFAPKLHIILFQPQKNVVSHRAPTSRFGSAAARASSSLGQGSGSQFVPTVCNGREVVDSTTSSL

[2] = target: T1, Metabotropic glutamate receptor 2; experiment: Positive allosteric modulation of human mGlu2 receptor expressed in CHO cells assessed as potentiation of glutamate-induced effect incubated for 30 mins prior to [35S]GTPgamma addition measured after 30 mins relative to glutamate; format: functional, cell-based
Target sequence in this assay (Q14416 19-872 limits assumed): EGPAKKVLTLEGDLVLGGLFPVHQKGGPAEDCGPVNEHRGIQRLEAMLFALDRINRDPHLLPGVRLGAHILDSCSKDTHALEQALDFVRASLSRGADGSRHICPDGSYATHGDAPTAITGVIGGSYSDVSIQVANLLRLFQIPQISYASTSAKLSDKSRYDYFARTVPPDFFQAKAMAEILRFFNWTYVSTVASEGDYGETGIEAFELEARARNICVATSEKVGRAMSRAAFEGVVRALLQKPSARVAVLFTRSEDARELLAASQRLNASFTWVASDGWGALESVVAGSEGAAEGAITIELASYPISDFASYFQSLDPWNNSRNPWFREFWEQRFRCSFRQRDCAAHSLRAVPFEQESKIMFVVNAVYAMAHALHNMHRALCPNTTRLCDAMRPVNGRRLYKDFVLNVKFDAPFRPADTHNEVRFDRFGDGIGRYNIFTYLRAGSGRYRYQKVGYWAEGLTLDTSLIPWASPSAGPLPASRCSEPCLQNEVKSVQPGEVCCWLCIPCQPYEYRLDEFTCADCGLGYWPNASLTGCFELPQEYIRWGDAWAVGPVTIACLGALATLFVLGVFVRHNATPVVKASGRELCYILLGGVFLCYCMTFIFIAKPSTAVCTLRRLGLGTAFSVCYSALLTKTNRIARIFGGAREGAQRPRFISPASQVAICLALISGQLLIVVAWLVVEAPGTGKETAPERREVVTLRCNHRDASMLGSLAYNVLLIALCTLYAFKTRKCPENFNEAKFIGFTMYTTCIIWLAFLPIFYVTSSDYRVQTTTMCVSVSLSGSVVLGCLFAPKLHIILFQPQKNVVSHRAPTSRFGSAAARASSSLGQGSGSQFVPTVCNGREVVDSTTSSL

[3] = Metabolic stability in human liver microsomes assessed as compound metabolized at 5 uM after 15 mins by MS/MS analysis in presence of NADPH; format: ADME; details: read-out: Drug metabolism
[4] = Metabolic stability in rat liver microsomes assessed as compound metabolized at 5 uM after 15 mins by MS/MS analysis in presence of NADPH; format: ADME; details: read-out: Drug metabolism
hERG (KCNH2) = hERG (KCNH2) (Homo sapiens, UniProt Q12809); experiment: Inhibition of human ERG channel transfected in HEK293 cells at 3 uM by patch clamp technique; format: cell-based; details: HEK293 cells transfected with human ERG channel
hERG (KCNH2), sequence (Q12809 whole entry): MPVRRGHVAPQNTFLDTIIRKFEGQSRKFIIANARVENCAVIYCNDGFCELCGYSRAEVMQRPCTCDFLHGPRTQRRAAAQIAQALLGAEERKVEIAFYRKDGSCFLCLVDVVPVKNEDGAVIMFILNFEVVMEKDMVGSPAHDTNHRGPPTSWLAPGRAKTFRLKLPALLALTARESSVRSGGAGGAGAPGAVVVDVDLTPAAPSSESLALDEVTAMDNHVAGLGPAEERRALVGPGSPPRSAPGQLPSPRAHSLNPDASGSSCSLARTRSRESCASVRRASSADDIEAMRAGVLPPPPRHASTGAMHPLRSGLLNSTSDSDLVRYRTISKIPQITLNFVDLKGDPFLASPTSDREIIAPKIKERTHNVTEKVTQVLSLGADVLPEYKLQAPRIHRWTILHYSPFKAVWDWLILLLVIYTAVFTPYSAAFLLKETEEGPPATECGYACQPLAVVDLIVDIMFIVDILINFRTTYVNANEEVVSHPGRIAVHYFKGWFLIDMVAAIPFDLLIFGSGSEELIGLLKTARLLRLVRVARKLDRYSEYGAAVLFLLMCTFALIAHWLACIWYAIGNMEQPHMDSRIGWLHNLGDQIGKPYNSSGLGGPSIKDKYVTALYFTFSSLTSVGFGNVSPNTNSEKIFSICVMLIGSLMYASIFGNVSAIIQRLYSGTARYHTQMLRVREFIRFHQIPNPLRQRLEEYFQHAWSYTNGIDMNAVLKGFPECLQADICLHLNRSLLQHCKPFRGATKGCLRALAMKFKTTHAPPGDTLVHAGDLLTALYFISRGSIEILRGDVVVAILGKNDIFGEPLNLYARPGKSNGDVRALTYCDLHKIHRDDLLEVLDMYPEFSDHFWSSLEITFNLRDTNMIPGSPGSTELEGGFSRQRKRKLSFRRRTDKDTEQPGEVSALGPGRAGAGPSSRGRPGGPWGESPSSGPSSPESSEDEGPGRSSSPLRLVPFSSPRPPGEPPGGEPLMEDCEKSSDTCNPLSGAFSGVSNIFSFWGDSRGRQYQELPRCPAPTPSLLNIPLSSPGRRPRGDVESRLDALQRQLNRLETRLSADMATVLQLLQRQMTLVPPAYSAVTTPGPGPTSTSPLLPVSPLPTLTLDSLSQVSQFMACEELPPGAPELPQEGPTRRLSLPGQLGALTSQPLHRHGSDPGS

[5] = Cmax in Sprague-Dawley rat at 10 mg/kg, po; format: ADME, organism-based; parameters: dose 10 mg/kg, route oral; details: in vivo
[6] = Oral bioavailability in Sprague-Dawley rat at 10 mg/kg; format: ADME, organism-based; details: in vivo
[7] = Ratio of drug level in brain to plasma in Swiss mouse at 10 mg/kg, sc after 1 hr; format: ADME, organism-based; parameters: dose 10 mg/kg, route subcutaneous; details: brain and plasma, read-out: BPR
Rattus norvegicus [8] = experiment: Positive allosteric modulation of mGlu2 receptor in po dosed Sprague-Dawley rat assessed effect on sleep-wake EEG paradigm after 20 hrs by electroencephalogram analysis; format: functional; details: for minimal effective dose: Rattus norvegicus, Sprague-Dawley, po, 20 h, read-out: MED
Rattus norvegicus [9] = experiment: Positive allosteric modulation of mGlu2 receptor in Sprague-Dawley rat sleep-wake EEG paradigm model assessed as reduction in REM sleep at 3 mg/kg, po after 4 hrs by electroencephalogram analysis; format: functional, organism-based; parameters: dose 3 mg/kg
Rattus norvegicus [10] = experiment: Positive allosteric modulation of mGlu2 receptor in Sprague-Dawley rat sleep-wake EEG paradigm model assessed as effect on active wake stage at 3 mg/kg, po after 4 hrs by electroencephalogram analysis; format: functional, organism-based; parameters: dose 3 mg/kg
Rattus norvegicus [11] = experiment: Positive allosteric modulation of mGlu2 receptor in Sprague-Dawley rat sleep-wake EEG paradigm model assessed as effect on passive wake stage at 3 mg/kg, po after 4 hrs by electroencephalogram analysis; format: functional, organism-based; parameters: dose 3 mg/kg
Rattus norvegicus [12] = experiment: Positive allosteric modulation of mGlu2 receptor in Sprague-Dawley rat sleep-wake EEG paradigm model assessed as effect on intermediate state at 3 mg/kg, po after 4 hrs by electroencephalogram analysis; format: functional, organism-based; parameters: dose 3 mg/kg
Rattus norvegicus [13] = experiment: Positive allosteric modulation of mGlu2 receptor in Sprague-Dawley rat sleep-wake EEG paradigm model assessed as effect on light sleep stage at 3 mg/kg, po after 4 hrs by electroencephalogram analysis; format: functional, organism-based; parameters: dose 3 mg/kg
Rattus norvegicus [14] = experiment: Positive allosteric modulation of mGlu2 receptor in Sprague-Dawley rat sleep-wake EEG paradigm model assessed as effect on deep sleep stage at 3 mg/kg, po after 4 hrs by electroencephalogram analysis; format: functional, organism-based; parameters: dose 3 mg/kg
[15] = Clearance in Sprague-Dawley rat at 2.5 mg/kg, iv; format: ADME, organism-based; parameters: dose 2.5 mg/kg, route intravenous; details: in vivo
[16] = Elimination half life in Sprague-Dawley rat at 2.5 mg/kg, iv; format: ADME, organism-based; parameters: dose 2.5 mg/kg, route intravenous; details: in vivo, read-out: beta t1/2 (converted)
[17] = Tmax in Sprague-Dawley rat at 2.5 mg/kg, iv; format: ADME, organism-based; parameters: dose 2.5 mg/kg, route intravenous; details: in vivo
[18] = AUC (0 to infinity) in Sprague-Dawley rat at 10 mg/kg, po; format: ADME, organism-based; parameters: time infinity, dose 10 mg/kg, route oral; details: plasma

Row | EC50 [1] | Emax [2] | metabolised at 0.25 h, 5 µM [3] | metabolised at 0.25 h, 5 µM [4] | SMILES | inhibition at 3 µM (hERG (KCNH2)) | other results
1 | 0.871 µM | 310% | 74% | 100% | CC(C)CCn1ccc(N2CCc3ccccc3C2)c(C#N)c1=O | – | –
2 | 0.282 µM | 316% | 37% | 47% | CC(C)Cn1ccc(N2CCC(c3ccccc3)CC2)c(C#N)c1=O | – | –
3 | 0.031 µM | 291% | 18% | 42% | N#Cc1c(N2CCC(c3c(F)cccc3F)CC2)ccn(CC2CC2)c1=O | 86% | –
4 | 0.081 µM | 282% | 30% | 42% | N#Cc1c(N2CCC(c3ccccc3F)CC2)ccn(CC2CC2)c1=O | 75% | –
5 | 0.035 µM | 265% | 53% | 68% | COc1ccccc1C1CCN(c2ccn(CC3CC3)c(=O)c2C#N)CC1 | 65% | –
6 | 0.049 µM | 259% | 22% | 34% | N#Cc1c(N2CCC(c3ccccc3Cl)CC2)ccn(CC2CC2)c1=O | – | –
7 | 0.151 µM | 234% | 30% | 45% | N#Cc1c(N2CCC(c3cc(F)cc(F)c3)CC2)ccn(CC2CC2)c1=O | 95% | –
8 | 2.95 µM | 173% | 22% | 90% | CC(C)CCn1ccc(OCc2ccccc2)c(C#N)c1=O | – | –
9 | 0.151 µM | 309% | 25% | 44% | N#Cc1c(N2CCC(c3ccccc3)CC2)ccn(CC2CC2)c1=O | 58% | Cmax [5]: 1410 ng/mL; bioavailability [6]: 51%; Kp at 1 h [7]: 0.3; MEC (Rattus norvegicus [8]): 420 ng/mL; minimal effective dose (Rattus norvegicus [8]): 3 mg/kg; Activity (Rattus norvegicus [9]): Active; Activity (Rattus norvegicus [10]): inactive; Activity (Rattus norvegicus [11]): inactive; Activity (Rattus norvegicus [12]): inactive; Activity (Rattus norvegicus [13]): inactive; Activity (Rattus norvegicus [14]): inactive; clearance [15]: 18 mL/min/kg; half-life [16]: 2.1 h; Tmax [17]: 0.5 h; AUC(0-inf) [18]: 4350 ng·h/mL
10 | 0.068 µM | 272% | 17% | 34% | N#Cc1c(N2CCC(c3ccc(F)cc3F)CC2)ccn(CC2CC2)c1=O | – | –
11 | 31.6 µM | 185% | 67% | 100% | CC(C)CCn1ccc(N2CCCCC2)c(C#N)c1=O | – | –
12 | 10.7 µM | 249% | 69% | 100% | CC(C)CCn1ccc(N(C)Cc2ccccc2)c(C#N)c1=O | – | –
13 | 0.178 µM | 316% | 50% | 61% | N#Cc1c(N2CCC(c3ccccc3)CC2)ccn(CCC2CC2)c1=O | – | –
14 | – | 135% | 36% | 100% | CC(C)CCn1ccc(-c2ccccc2)c(C#N)c1=O | – | –
15 | – | 260% | 12% | 31% | CC(C)Cn1ccc(N2CCC(c3ccccc3)CC2)c(Cl)c1=O | 24% | Cmax [5]: 1360 ng/mL; bioavailability [6]: 25%; Kp at 1 h [7]: 0.8; MEC (Rattus norvegicus [8]): 407 ng/mL; minimal effective dose (Rattus norvegicus [8]): 3 mg/kg; Activity (Rattus norvegicus [9]): Active; Activity (Rattus norvegicus [10]): inactive; Activity (Rattus norvegicus [11]): inactive; Activity (Rattus norvegicus [12]): inactive; Activity (Rattus norvegicus [13]): inactive; Activity (Rattus norvegicus [14]): inactive; clearance [15]: 13 mL/min/kg; half-life [16]: 2.6 h; Tmax [17]: 0.7 h; AUC(0-inf) [18]: 3460 ng·h/mL
16 | 0.048 µM | 249% | 28% | 21% | N#Cc1c(N2CCC(c3ccc(Cl)cc3)CC2)ccn(CC2CC2)c1=O | – | –

Row | EC50 [1] | Emax [2] | metabolised at 0.25 h, 5 µM [3] | metabolised at 0.25 h, 5 µM [4] | SMILES | inhibition at 3 µM (hERG (KCNH2)) | other results
17 | 0.661 µM | 118% | 50% | 90% | CC(C)CCn1ccc(N2CCN(c3ccccc3)CC2)c(C#N)c1=O | – | –
18 | 0.102 µM | 268% | 28% | 97% | CC(C)CCn1ccc(N2CCC(c3ccccc3)CC2)c(C#N)c1=O | – | –
19 | 3.09 µM | 304% | 51% | 54% | CC(C)CCn1ccc(N2CCN(c3ccccn3)CC2)c(C#N)c1=O | – | –
20 | 0.17 µM | 259% | 17% | 30% | O=c1c(Cl)c(N2CCC(c3ccccc3)CC2)ccn1CC1CC1 | 51% | Cmax [5]: 986 ng/mL; bioavailability [6]: 34%; Kp at 1 h [7]: 0.9; MEC (Rattus norvegicus [8]): >986 ng/mL; minimal effective dose (Rattus norvegicus [8]): > 10 mg/kg; Activity (Rattus norvegicus [9]): inactive; Activity (Rattus norvegicus [10]): inactive; Activity (Rattus norvegicus [11]): inactive; Activity (Rattus norvegicus [12]): inactive; Activity (Rattus norvegicus [13]): inactive; Activity (Rattus norvegicus [14]): inactive; clearance [15]: 24 mL/min/kg; half-life [16]: 3.5 h; Tmax [17]: 0.5 h; AUC(0-inf) [18]: 2310 ng·h/mL
21 | 0.355 µM | 302% | 18% | 43% | N#Cc1c(N2CCC(c3ccccc3)CC2)ccn(CCCC(F)(F)F)c1=O | – | –
22 | 0.046 µM | 191% | 35% | 39% | N#Cc1c(N2CCC(c3cccc(C(F)(F)F)c3)CC2)ccn(CC2CC2)c1=O | 97% | –
23 | 3.31 µM | 231% | 80% | 98% | CC(C)CCn1ccc(N2CCCC(c3ccccc3)C2)c(C#N)c1=O (stereo unspecified) | – | –
24 | 0.095 µM | 309% | 30% | 62% | CCCCn1ccc(N2CCC(c3ccccc3)CC2)c(C#N)c1=O | – | –
25 | 4.68 µM | 304% | 38% | 85% | CC(C)CCn1ccc(N2CCN(Cc3ccccc3)CC2)c(C#N)c1=O | – | –
26 | 0.089 µM | 258% | 31% | 36% | N#Cc1c(N2CCC(c3ccc(F)cc3)CC2)ccn(CC2CC2)c1=O | 89% | –
27 | 0.055 µM | 269% | 46% | 86% | N#Cc1c(N2CCC(c3ccccc3)CC2)ccn(CC2CCC2)c1=O | – | –
28 | 0.141 µM | 268% | 35% | 37% | N#Cc1c(N2CCC(c3cccc(F)c3)CC2)ccn(CC2CC2)c1=O | 87% | –
29 | – | 239% | 33% | 89% | O=c1c(C(F)(F)F)c(N2CCC(c3ccccc3)CC2)ccn1CC1CC1 | – | –
30 | 0.361 µM | 168% | 91% | 99% | CC(C)CCn1ccc(CCc2ccccc2)c(C#N)c1=O | – | –
31 | 0.098 µM | 257% | 76% | 57% | COc1ccc(C2CCN(c3ccn(CC4CC4)c(=O)c3C#N)CC2)cc1 | – | –
